Data: patent US20210045385A1, “PYRIDAZINONE-SUBSTITUTED KETOXIMES AS HERBICIDES” (FMC Corporation, priority 2018, published 2021)

Tests used:
Type in all cases: in vivo
[1] = tested on: Italian ryegrass (Lolium mutiflorum); assay: Test C preemergence, visual plant response rating
In short: (§1)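 Seeds sown in a loam–sand blend got a directed preemergence soil spray; postemergence plants (2–10 cm, one- to two-leaf stage) were sprayed with compound in a non-phytotoxic solvent plus surfactant. Injury was scored visually against untreated controls after about 10 d in a greenhouse on a 0–100 scale (100 = complete control).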

[2] = tested on: barnyardgrass (Echinochloa crus-galli); assay: Test C preemergence, visual plant response rating
In short: as §1

[3] = tested on: foxtail, giant (giant foxtail, Setaria faberi); assay: Test C preemergence, visual plant response rating
In short: as §1

kochia (Bassia scoparia) [4] = assay: Test C preemergence, visual plant response rating
In short: as §1

[5] = tested on: pigweed (Amaranthus retroflexus); assay: Test C preemergence, visual plant response rating
In short: as §1

[6] = tested on: ragweed (common ragweed, Ambrosia artemisiifolia); assay: Test C preemergence, visual plant response rating
In short: as §1

[7] = tested on: Italian ryegrass (Lolium mutiflorum); assay: Test C postemergence, visual plant response rating
In short: as §1

[8] = tested on: barnyardgrass (Echinochloa crus-galli); assay: Test C postemergence, visual plant response rating
In short: as §1

[9] = tested on: blackgrass (Alopecurus myosuroides); assay: Test C postemergence, visual plant response rating
In short: as §1

corn (Zea mays) = assay: Test C postemergence, visual plant response rating
In short: as §1

[10] = tested on: foxtail, giant (giant foxtail, Setaria faberi); assay: Test C postemergence, visual plant response rating
In short: as §1

[11] = tested on: galium (catchweed bedstraw, Galium aparine); assay: Test C postemergence, visual plant response rating
In short: as §1

kochia (Bassia scoparia) [12] = assay: Test C postemergence, visual plant response rating
In short: as §1

[13] = tested on: pigweed (Amaranthus retroflexus); assay: Test C postemergence, visual plant response rating
In short: as §1

[14] = tested on: ragweed (common ragweed, Ambrosia artemisiifolia); assay: Test C postemergence, visual plant response rating
In short: as §1

[15] = tested on: wheat (Triticum aestivum); assay: Test C postemergence, visual plant response rating
In short: as §1

[16] = tested on: barnyardgrass (Echinochloa crus-galli); assay: Test D flooded paddy test, visual plant response rating; conditions: 250 g ai/ha, scale 0 to 100 (0 no effect, 100 complete control), 13 to 15 d
In short: (§2)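 Plants grown to the 2-leaf stage; pots flooded to 3 cm above soil and compound applied directly into paddy water, depth held throughout. Kept in greenhouse 13 to 15 d, then rated visually against untreated controls on a 0–100 scale (0 no effect, 100 complete control).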

[17] = tested on: duck salad (Heteranthera limosa); assay: as above; conditions: 250 g ai/ha, scale 0 to 100 (0 no effect, 100 complete control), 13 to 15 d
In short: as §2

rice (Oryza sativa) = assay: as above; conditions: 250 g ai/ha, scale 0 to 100 (0 no effect, 100 complete control), 13 to 15 d
In short: as §2

[18] = tested on: sedge umbrella (small-flower umbrella sedge, Cyperus difformis); assay: as above; conditions: 250 g ai/ha, scale 0 to 100 (0 no effect, 100 complete control), 13 to 15 d
In short: as §2

[19] = Test C, postemergence, 125 g ai/ha
[20] = Test C, postemergence, 500 g ai/ha
[21] = Test C, 31 g ai/ha, 0 is no effect, 100 is complete control
[22] = Test C, 125 g ai/ha, 0 is no effect, 100 is complete control

Structure (SMILES): CON=C(c1csc(C)c1)c1c(O)c(C)nn(C)c1=O [Compound 151]
- Ryegrass, Italian plant response rating (0 to 100 scale) ([1]; 125 g ai/ha): 0
- Ryegrass, Italian plant response rating (0 to 100 scale) ([1]; 500 g ai/ha): 30
- Barnyardgrass plant response rating (0 to 100 scale) ([2]; 125 g ai/ha): 0
- Barnyardgrass plant response rating (0 to 100 scale) ([2]; 500 g ai/ha): 0
- Foxtail, Giant plant response rating (0 to 100 scale) ([3]; 125 g ai/ha): 0
- Foxtail, Giant plant response rating (0 to 100 scale) ([3]; 500 g ai/ha): 0
- Kochia plant response rating (0 to 100 scale) (kochia (Bassia scoparia) [4]; 125 g ai/ha): 0
- Kochia plant response rating (0 to 100 scale) (kochia (Bassia scoparia) [4]; 500 g ai/ha): 0
- Pigweed plant response rating (0 to 100 scale) ([5]; 125 g ai/ha): 0
- Pigweed plant response rating (0 to 100 scale) ([5]; 500 g ai/ha): 0
- Ragweed plant response rating (0 to 100 scale) ([6]; 125 g ai/ha): 0
- Ragweed plant response rating (0 to 100 scale) ([6]; 500 g ai/ha): 0
- Ryegrass, Italian plant response rating (0 to 100 scale) [7, 19]: 20
- Ryegrass, Italian plant response rating (0 to 100 scale) [7, 20]: 30
- Barnyardgrass plant response rating (0 to 100 scale) [8, 19]: 0
- Barnyardgrass plant response rating (0 to 100 scale) [8, 20]: 10
- Blackgrass plant response rating (0 to 100 scale) [9, 19]: 0
- Blackgrass plant response rating (0 to 100 scale) [9, 20]: 30
- Corn plant response rating (0 to 100 scale) (corn (Zea mays); [19]): 0
- Corn plant response rating (0 to 100 scale) (corn (Zea mays); [20]): 0
- Foxtail, Giant plant response rating (0 to 100 scale) [10, 19]: 0
- Foxtail, Giant plant response rating (0 to 100 scale) [10, 20]: 10
- Galium plant response rating (0 to 100 scale) [11, 19]: 40
- Galium plant response rating (0 to 100 scale) [11, 20]: 50
- Kochia plant response rating (0 to 100 scale) (kochia (Bassia scoparia) [12]; [19]): 0
- Kochia plant response rating (0 to 100 scale) (kochia (Bassia scoparia) [12]; [20]): 20
- Pigweed plant response rating (0 to 100 scale) [13, 19]: 10
- Pigweed plant response rating (0 to 100 scale) [13, 20]: 10
- Ragweed plant response rating (0 to 100 scale) [14, 19]: 0
- Ragweed plant response rating (0 to 100 scale) [14, 20]: 30
- Wheat plant response rating (0 to 100 scale) [15, 19]: 0
- Wheat plant response rating (0 to 100 scale) [15, 20]: 0
- Plant response rating, Barnyardgrass (Flood) [16]: 0
- Plant response rating, Ducksalad (Flood) [17]: 0
- Plant response rating, Rice (Flood) (rice (Oryza sativa)): 0
- Plant response rating, Sedge, Umbrella (Flood) [18]: 0

Structure (SMILES): CO/N=C(/c1cc(F)cc(F)c1C)c1c(O)c(C)nn(C)c1=O [Compound 305]
- Ryegrass, Italian plant response rating (0 to 100 scale) ([1]; 125 g ai/ha): 30
- Ryegrass, Italian plant response rating (0 to 100 scale) [1, 21]: 0
- Barnyardgrass plant response rating (0 to 100 scale) ([2]; 125 g ai/ha): 20
- Barnyardgrass plant response rating (0 to 100 scale) [2, 21]: 10
- Foxtail, Giant plant response rating (0 to 100 scale) ([3]; 125 g ai/ha): 30
- Foxtail, Giant plant response rating (0 to 100 scale) [3, 21]: 10
- Kochia plant response rating (0 to 100 scale) (kochia (Bassia scoparia) [4]; 125 g ai/ha): 30
- Kochia plant response rating (0 to 100 scale) (kochia (Bassia scoparia) [4]; [21]): 10
- Pigweed plant response rating (0 to 100 scale) ([5]; 125 g ai/ha): 70
- Pigweed plant response rating (0 to 100 scale) [5, 21]: 30
- Ragweed plant response rating (0 to 100 scale) ([6]; 125 g ai/ha): 20
- Ragweed plant response rating (0 to 100 scale) [6, 21]: 20
- Ryegrass, Italian plant response rating (0 to 100 scale) ([7]; Postemergence, 31 g ai/ha): 10
- Ryegrass, Italian plant response rating (0 to 100 scale) [7, 19]: 80
- Barnyardgrass plant response rating (0 to 100 scale) ([8]; Postemergence, 31 g ai/ha): 20
- Barnyardgrass plant response rating (0 to 100 scale) [8, 19]: 30
- Blackgrass plant response rating (0 to 100 scale) ([9]; Postemergence, 31 g ai/ha): 10
- Blackgrass plant response rating (0 to 100 scale) [9, 19]: 20
- Corn plant response rating (0 to 100 scale) (corn (Zea mays); Postemergence, 31 g ai/ha): 0
- Corn plant response rating (0 to 100 scale) (corn (Zea mays); [19]): 0
- Foxtail, Giant plant response rating (0 to 100 scale) ([10]; Postemergence, 31 g ai/ha): 30
- Foxtail, Giant plant response rating (0 to 100 scale) [10, 19]: 50
- Galium plant response rating (0 to 100 scale) ([11]; Postemergence, 31 g ai/ha): 70
- Galium plant response rating (0 to 100 scale) [11, 19]: 70
- Kochia plant response rating (0 to 100 scale) (kochia (Bassia scoparia) [12]; Postemergence, 31 g ai/ha): 50
- Kochia plant response rating (0 to 100 scale) (kochia (Bassia scoparia) [12]; [19]): 70
- Pigweed plant response rating (0 to 100 scale) ([13]; Postemergence, 31 g ai/ha): 60
- Pigweed plant response rating (0 to 100 scale) [13, 19]: 90
- Ragweed plant response rating (0 to 100 scale) ([14]; Postemergence, 31 g ai/ha): 30
- Ragweed plant response rating (0 to 100 scale) [14, 19]: 70
- Wheat plant response rating (0 to 100 scale) ([15]; Postemergence, 31 g ai/ha): 0
- Wheat plant response rating (0 to 100 scale) [15, 19]: 0
- Plant response rating, Barnyardgrass (Flood) [16]: 0
- Plant response rating, Ducksalad (Flood) [17]: 0
- Plant response rating, Rice (Flood) (rice (Oryza sativa)): 0
- Plant response rating, Sedge, Umbrella (Flood) [18]: 0

Structure (SMILES): CON=C(c1cc(Cl)cc(F)c1Cl)c1c(O)c(C)nn(C)c1=O [Compound 271]
- Ryegrass, Italian plant response rating (0 to 100 scale) [1, 21]: 80
- Ryegrass, Italian plant response rating (0 to 100 scale) [1, 22]: 100
- Barnyardgrass plant response rating (0 to 100 scale) [2, 21]: 30
- Barnyardgrass plant response rating (0 to 100 scale) [2, 22]: 50
- Foxtail, Giant plant response rating (0 to 100 scale) [3, 21]: 40
- Foxtail, Giant plant response rating (0 to 100 scale) [3, 22]: 80
- Kochia plant response rating (0 to 100 scale) (kochia (Bassia scoparia) [4]; [21]): 20
- Kochia plant response rating (0 to 100 scale) (kochia (Bassia scoparia) [4]; [22]): 100
- Pigweed plant response rating (0 to 100 scale) [5, 21]: 100
- Pigweed plant response rating (0 to 100 scale) [5, 22]: 100
- Ragweed plant response rating (0 to 100 scale) [6, 21]: 30
- Ragweed plant response rating (0 to 100 scale) [6, 22]: 80
- Ryegrass, Italian plant response rating (0 to 100 scale) ([7]; Postemergence, 31 g ai/ha): 80
- Ryegrass, Italian plant response rating (0 to 100 scale) [7, 19]: 100
- Barnyardgrass plant response rating (0 to 100 scale) ([8]; Postemergence, 31 g ai/ha): 40
- Barnyardgrass plant response rating (0 to 100 scale) [8, 19]: 80
- Blackgrass plant response rating (0 to 100 scale) ([9]; Postemergence, 31 g ai/ha): 20
- Blackgrass plant response rating (0 to 100 scale) [9, 19]: 40
- Corn plant response rating (0 to 100 scale) (corn (Zea mays); Postemergence, 31 g ai/ha): 10
- Corn plant response rating (0 to 100 scale) (corn (Zea mays); [19]): 30
- Foxtail, Giant plant response rating (0 to 100 scale) ([10]; Postemergence, 31 g ai/ha): 70
- Foxtail, Giant plant response rating (0 to 100 scale) [10, 19]: 80
- Galium plant response rating (0 to 100 scale) ([11]; Postemergence, 31 g ai/ha): 100
- Galium plant response rating (0 to 100 scale) [11, 19]: 100
- Kochia plant response rating (0 to 100 scale) (kochia (Bassia scoparia) [12]; Postemergence, 31 g ai/ha): 60
- Kochia plant response rating (0 to 100 scale) (kochia (Bassia scoparia) [12]; [19]): 80
- Pigweed plant response rating (0 to 100 scale) ([13]; Postemergence, 31 g ai/ha): 80
- Pigweed plant response rating (0 to 100 scale) [13, 19]: 90
- Ragweed plant response rating (0 to 100 scale) ([14]; Postemergence, 31 g ai/ha): 70
- Ragweed plant response rating (0 to 100 scale) [14, 19]: 90
- Wheat plant response rating (0 to 100 scale) ([15]; Postemergence, 31 g ai/ha): 30
- Wheat plant response rating (0 to 100 scale) [15, 19]: 70
- Plant response rating, Barnyardgrass (Flood) [16]: 0
- Plant response rating, Ducksalad (Flood) [17]: 0
- Plant response rating, Rice (Flood) (rice (Oryza sativa)): 0
- Plant response rating, Sedge, Umbrella (Flood) [18]: 0
